Measured values: PubChem BioAssay AID248 (DTP/NCI, 2004)
“And” between values parts separate entries of the source, which are not always exact repeats. Equal values may be shown once. Inconclusive results and toxic doses are left out.

Test system: L1210 leukemia ip in BDF1 mice, survival T/C
Test: NCI In Vivo Anticancer Drug Screen. Data for tumor model L1210 Leukemia (intraperitoneal) in B6D2F1 (BDF1) mice
Details: endpoint: mean survival time, higher = longer survival
Procedure, shortened: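 Value reflects the ratio of survival in compound-treated mice to survival in vehicle-treated controls, with both groups carrying the same transplanted tumor.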

In the case of `O=NN(CCCl)C(=O)NC1CCCCC1`, the T/C (dose: 0.06 mg/kg/injection, schedule: Q03HX024 (ip), vehicle: saline) is reported as 101 % of control, the T/C (dose: 0.06 mg/kg/injection, schedule: Q03HX024 (oral), vehicle: saline) is reported as 98 % of control and the T/C (dose: 0.06 mg/kg/injection, schedule: Q03HX040 (oral), vehicle: saline) is reported as 115 % of control. For the same molecule, the T/C (dose: 0.13 mg/kg/injection, schedule: Q03HX024 (oral), vehicle: saline) was 108 % of control, the T/C (dose: 0.13 mg/kg/injection, schedule: Q03HX040 (oral), vehicle: saline) was 153 % of control and the T/C (dose: 0.16 mg/kg/injection, schedule: Q#B X003 (ip), vehicle: carboxymethylcellulose (CMC)) was 103 % of control. For the same molecule, the T/C (dose: 0.33 mg/kg/injection, schedule: Q#B X003 (ip), vehicle: carboxymethylcellulose (CMC)) was 95 % of control, the T/C (dose: 0.39 mg/kg/injection, schedule: Q03HX040 (ip), vehicle: carboxymethylcellulose (CMC)) was 100 % of control and the T/C (dose: 0.5 mg/kg/injection, schedule: Q01DX005 (ip), vehicle: saline) was 101 % of control. For the same molecule, the T/C (dose: 0.66 mg/kg/injection, schedule: Q#B X003 (ip), vehicle: carboxymethylcellulose (CMC)) was 97 % of control, the T/C (dose: 0.78 mg/kg/injection, schedule: Q03HX024 (ip), vehicle: carboxymethylcellulose (CMC)) was 106 % of control and the T/C (dose: 1.0 mg/kg/injection, schedule: Q01DX001 (ip), vehicle: saline) was 104 % of control. The T/C (dose: 1.0 mg/kg/injection, schedule: Q01DX001 (oral), vehicle: saline) was 100 % of control, the T/C (dose: 1.0 mg/kg/injection, schedule: Q01DX005 (ip), vehicle: saline) was 104 % of control and the T/C (dose: 1.0 mg/kg/injection, schedule: Q03HX040 (ip), vehicle: saline) was 100 % of control. For the same molecule, the T/C (dose: 1.0 mg/kg/injection, schedule: Q## X001 (ip), vehicle: carboxymethylcellulose (CMC)) was 106 % of control, the T/C (dose: 1.33 mg/kg/injection, schedule: Q#B X003 (ip), vehicle: carboxymethylcellulose (CMC)) was 110 % of control and the T/C (dose: 1.56 mg/kg/injection, schedule: Q01DX009 (ip), vehicle: carboxymethylcellulose (CMC)) was 105 % of control. For the same molecule, the T/C (dose: 1.56 mg/kg/injection, schedule: Q03HX024 (ip), vehicle: carboxymethylcellulose (CMC)) was 120 % of control, the T/C (dose: 1.56 mg/kg/injection, schedule: Q03HX040 (ip), vehicle: carboxymethylcellulose (CMC)) was 119 % of control and the T/C (dose: 2.0 mg/kg/injection, schedule: Q01DX Z (ip), vehicle: carboxymethylcellulose (CMC)) was 124 % of control. For the same molecule, the T/C (dose: 2.0 mg/kg/injection, schedule: Q04DX004 (ip), vehicle: Klucel (hydroxypropylcellulose) (HPC)) was 94 % of control, the T/C (dose: 2.66 mg/kg/injection, schedule: Q#B X003 (ip), vehicle: carboxymethylcellulose (CMC)) was 121 % of control and the T/C (dose: 2.8 mg/kg/injection, schedule: Q01DX015 (ip), vehicle: carboxymethylcellulose (CMC)) was 112 % of control. For the same molecule, the T/C (dose: 3.12 mg/kg/injection, schedule: Q01DX005 (ip), vehicle: carboxymethylcellulose (CMC)) was 113 % of control, the T/C (dose: 3.12 mg/kg/injection, schedule: Q01DX Z (ip), vehicle: carboxymethylcellulose (CMC)) was 172 % of control and the T/C (dose: 4.0 mg/kg/injection, schedule: Q01DX009 (oral), vehicle: saline) was 112 % of control. The T/C (dose: 4.0 mg/kg/injection, schedule: Q03HX003 (oral), vehicle: saline) was 111 % of control, the T/C (dose: 4.2 mg/kg/injection, schedule: Q## X015 (ip), vehicle: carboxymethylcellulose (CMC)) was 113 % of control and the T/C (dose: 4.4 mg/kg/injection, schedule: Q04DX004 (ip), vehicle: Klucel (hydroxypropylcellulose) (HPC)) was 113 % of control. For the same molecule, the T/C (dose: 5.0 mg/kg/injection, schedule: Q## X032 (ip), vehicle: carboxymethylcellulose (CMC)) was 106 % of control and 110 % of control, the T/C (dose: 6.0 mg/kg/injection, schedule: Q02DX005 (ip), vehicle: carboxymethylcellulose (CMC)) was 154 % of control and the T/C (dose: 6.0 mg/kg/injection, schedule: Q02DX006 (ip), vehicle: carboxymethylcellulose (CMC)) was 158 % of control. The T/C (dose: 6.0 mg/kg/injection, schedule: Q02DX007 (ip), vehicle: carboxymethylcellulose (CMC)) was 163 % of control, the T/C (dose: 6.0 mg/kg/injection, schedule: Q## X008 (ip), vehicle: carboxymethylcellulose (CMC)) was 108 % of control and the T/C (dose: 6.25 mg/kg/injection, schedule: Q01DX001 (ip), vehicle: Klucel (hydroxypropylcellulose) (HPC)) was 116 % of control. The T/C (dose: 6.25 mg/kg/injection, schedule: Q01DX001 (ip), vehicle: carboxymethylcellulose (CMC)) was 109 % of control, the T/C (dose: 6.25 mg/kg/injection, schedule: Q01DX001 (oral), vehicle: carboxymethylcellulose (CMC)) was 122 % of control and the T/C (dose: 6.25 mg/kg/injection, schedule: Q01DX005 (ip), vehicle: carboxymethylcellulose (CMC)) was 157 % of control. For the same molecule, the T/C (dose: 6.25 mg/kg/injection, schedule: Q07DX Z (ip), vehicle: carboxymethylcellulose (CMC)) was 112 % of control, the T/C (dose: 6.7 mg/kg/injection, schedule: Q04DX004 (ip), vehicle: Klucel (hydroxypropylcellulose) (HPC)) was 159 % of control and the T/C (dose: 7.2 mg/kg/injection, schedule: Q## X032 (ip), vehicle: carboxymethylcellulose (CMC)) was 110 % of control. The T/C (dose: 7.5 mg/kg/injection, schedule: Q01DX001 (iv), vehicle: Klucel (hydroxypropylcellulose) (HPC)) was 114 % of control, the T/C (dose: 8.0 mg/kg/injection, schedule: Q03HX003 (oral), vehicle: saline) was 120 % of control and the T/C (dose: 8.0 mg/kg/injection, schedule: Q## X032 (ip), vehicle: carboxymethylcellulose (CMC)) was 113 % of control.
